Values after ≈ are worked out from the molar mass of the structure shown. Active and inactive are the calls of the source. The calls are words filed in the database; no cut-off is given here.
Tests used:
[1] = biological target: Disintegrin and metalloproteinase domain-containing protein 17 (Homo sapiens, UniProt P78536); assay: Inhibition of TACE in human PBMC assessed as reduction in LPS-induced TNFalpha production incubated overnight by HTRF assay; format: cell-based
[2] = Solubility of the compound in propylene glycol/ethanol96 at 30 mg/ml after 24 hrs by UV-spectrometric analysis; format: physicochemical; conditions: for solubility at 24 h: propylene glycol/ethanol96; for solubility: 24 h
[3] = Stability of the compound in propylene glycol/ethanol96 assessed as parent compound remaining at 0.1 mg/ml after 1 month at 40 degC by HPLC analysis; format: physicochemical; conditions: read-out: Stability
[4] = (§1) Intrinsic clearance in human hepatocytes assessed per million cells at 1 uM by LC-MS/MS analysis; format: ADME, cell-based, Hepatocyte; conditions: human hepatocytes, read-out: CLH
[5] = system: Mus musculus; assay: Antiinflammatory activity in topically applied oxazolone-induced chronic skin inflammation hairless SKH1 mouse model assessed as decrease in skin lesions applied topically for 10 days in combination with oxazolone; format: functional, organism-based
[6] = Aqueous solubility of the compound in PBS at pH 7.4 at 20 degC after 24 hrs by HPLC analysis; format: physicochemical
[7] = Stability of the compound in propylene glycol/ethanol96 at 0.1 mg/ml measured up to 3 months by HPLC analysis; format: physicochemical; conditions: read-out: Stability
[8] = Half life in human neonatal keratinocytes at 1 uM by LC-MS/MS analysis; format: ADME, cell-based
[9] = system: TK6; assay: Genotoxicity in p53-competent human TK6 cells in presence of Sprague-Dawley rat S9 fraction by GADD45alpha GFP reporter assay; format: toxicity, cell-based
[10] = system: TK6; assay: Genotoxicity in p53-competent human TK6 cells in absence of Sprague-Dawley rat S9 fraction by GADD45alpha GFP reporter assay; format: toxicity, cell-based
[11] = Photoirritancy factor, ratio of EC50 for human neonatal keratinocytes under dark condition to EC50 for human neonatal keratinocytes under 5 J/cm2 UV light exposure; format: toxicity; conditions: read-out: Ratio EC50
[12] = system: Hepatocyte; assay: as §1; format: ADME, cell-based; conditions: hepatocytes, 1 µM

Chain of Disintegrin and metalloproteinase domain-containing protein 17 (P78536 whole entry, the tested form may be a part): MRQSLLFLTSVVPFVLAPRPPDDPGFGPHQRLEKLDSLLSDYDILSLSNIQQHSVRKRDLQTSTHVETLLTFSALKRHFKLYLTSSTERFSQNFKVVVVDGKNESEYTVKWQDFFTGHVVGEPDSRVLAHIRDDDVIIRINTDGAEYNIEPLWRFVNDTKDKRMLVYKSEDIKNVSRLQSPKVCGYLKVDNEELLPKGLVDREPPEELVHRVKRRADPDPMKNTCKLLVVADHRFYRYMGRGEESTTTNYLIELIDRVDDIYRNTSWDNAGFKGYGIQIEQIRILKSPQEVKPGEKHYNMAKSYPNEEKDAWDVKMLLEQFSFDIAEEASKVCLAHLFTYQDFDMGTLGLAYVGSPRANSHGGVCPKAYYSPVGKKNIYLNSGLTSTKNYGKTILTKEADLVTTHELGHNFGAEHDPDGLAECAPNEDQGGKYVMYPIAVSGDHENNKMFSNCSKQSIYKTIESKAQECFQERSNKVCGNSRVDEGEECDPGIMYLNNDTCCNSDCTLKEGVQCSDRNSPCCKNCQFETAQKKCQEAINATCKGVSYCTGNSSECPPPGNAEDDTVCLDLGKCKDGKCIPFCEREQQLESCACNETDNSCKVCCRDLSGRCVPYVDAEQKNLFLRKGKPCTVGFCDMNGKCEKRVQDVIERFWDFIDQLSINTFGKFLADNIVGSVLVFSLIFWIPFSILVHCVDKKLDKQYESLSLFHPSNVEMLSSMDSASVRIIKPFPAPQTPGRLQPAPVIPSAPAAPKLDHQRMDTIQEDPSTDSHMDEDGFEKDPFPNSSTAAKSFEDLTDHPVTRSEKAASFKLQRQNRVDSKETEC

| SMILES | IC50 [1] | solubility at 24 h [2] | other results |
| --- | --- | --- | --- |
| CCN(C1(C(=O)NO)CN(C(=O)C(C)C)C1)S(=O)(=O)c1ccc(OCc2cc(C)nc3ccccc23)cc1 | 37 nM | 44000 µM (≈ 23800 µg/mL) | hepatocyte CLint at 1 µM [4]: 11 µL/min/1e6 cells |
| Cc1cc(COc2ccc(S(=O)(=O)NC3(C(=O)NO)CN(CCC(F)(F)F)C3)cc2)c2ccccc2n1 |  |  | remaining at 730.5 h, 0.1 mg/ml [3]: 58% |
| CC(=O)N1CC(CC(=O)NO)(NS(=O)(=O)c2ccc(OCc3cc(C)nc4ccccc34)c(C)c2)C1 | > 10000 nM | 400 µM (≈ 205 µg/mL) |  |
| CCCCC(=O)O[C@]1(C(=O)CO)[C@@H](C)C[C@H]2[C@@H]3CCC4=CC(=O)C=C[C@]4(C)[C@@]3(F)[C@@H](O)C[C@@]21C |  |  | Activity [5]: Active |
| CC(=O)N1CC(CC(=O)NO)(NS(=O)(=O)c2ccc(SCc3cc(C)nc4ccccc34)cc2)C1 | 720 nM | 1000 µM (≈ 515 µg/mL) |  |
| Cc1cc(COc2ccc(S(=O)(=O)NC3(CC(=O)NO)CC3)cc2)c2ccccc2n1 | 84 nM | 1600 µM (≈ 706 µg/mL) |  |
| Cc1cc(COc2ccc(S(=O)(=O)NC(C)(C)C(=O)NO)cc2)c2ccccc2n1 | 140 nM |  |  |
| CC(=O)N1CC(CC(=O)NO)(NS(=O)(=O)c2ccc(OCc3cc(C)nc4c(F)cccc34)cc2)C1 | 61 nM |  |  |
| Cc1cc(COc2ccc(S(=O)(=O)NC3(C(=O)NO)CCCC3)cc2)c2ccccc2n1 | 68 nM | 200 µM (≈ 91.1 µg/mL) |  |
| Cc1cc(COc2ccc(S(=O)(=O)NC(C)(C)CC(=O)NO)cc2)c2ccccc2n1 | 43 nM | 1600 µM (≈ 710 µg/mL) |  |
| Cc1cc(COc2ccc(S(=O)(=O)NC[C@@H](C(=O)NO)N3CCCCC3)cc2)c2ccccc2n1 |  | 8000 µM (≈ 3990 µg/mL) | solubility at 24 h [6]: < 1 µM; remaining at 0.1 mg/ml [7]: 89%; hepatocyte CLint at 1 µM [4]: 24 µL/min/1e6 cells; half-life at 1 µM [8]: > 24 h; Activity [9]: Non-Toxic; Activity [10]: Non-Toxic |
| Cc1cc(COc2ccc(S(=O)(=O)NCC(=O)NO)cc2)c2ccccc2n1 | 82 nM | 100 µM (≈ 40.1 µg/mL) |  |
| Cc1cc(COc2ccc(S(=O)(=O)NC3(C(=O)NO)CCCCC3)cc2)c2ccccc2n1 | 100 nM | 11000 µM (≈ 5170 µg/mL) | Activity [9]: Non-Toxic; Activity [10]: Non-Toxic |
| Cc1cc(COc2ccc(S(=O)(=O)NC3(C(=O)NO)CC3)cc2)c2ccccc2n1 | 210 nM | 46000 µM (≈ 19700 µg/mL) | Activity [9]: Toxic; Activity [10]: Toxic |
| CC(=O)N1CCC(NS(=O)(=O)c2ccc(OCc3cc(C)nc4ccccc34)cc2)(C(=O)NO)CC1 | 61 nM | 59000 µM (≈ 30200 µg/mL) | Activity [9]: Toxic; Activity [10]: Toxic |
| CC(=O)N1CC(CC(=O)NO)(N(C)S(=O)(=O)c2ccc(OCc3cc(C)nc4ccccc34)cc2)C1 | 590 nM |  |  |
| CC(=O)N1CC(CC(=O)NO)(NS(=O)(=O)c2ccc(OCc3cc(C)nc4ccccc34)cc2C)C1 | > 10000 nM | 900 µM (≈ 461 µg/mL) |  |
| Cc1cc(COc2ccc(S(=O)(=O)N(C)C3(C(=O)NO)CN(CCC(F)(F)F)C3)cc2)c2ccccc2n1 |  |  | remaining at 730.5 h, 0.1 mg/ml [3]: 98% |
| Cc1cc(COc2ccc(S(=O)(=O)N(C(C)C)C3(C(=O)NO)CN(C(=O)C(C)C)C3)cc2)c2ccccc2n1 | 790 nM | 2200 µM (≈ 1220 µg/mL) | hepatocyte CLint at 1 µM [4]: 17 µL/min/1e6 cells |
| CC#CCOc1ccc(S(=O)(=O)NC2(CC(=O)NO)CN(C(C)=O)C2)cc1 | 1300 nM | 1800 µM (≈ 712 µg/mL) |  |
| Cc1cc(COc2ccc(S(=O)(=O)NC3(CC(=O)NO)CCN(C(=O)CC(C)C)C3)cc2)c2ccccc2n1 (stereo in doubt; 18h) | 42 nM |  | solubility [2]: 7900 µM (≈ 4380 µg/mL) |
| CC(=O)N1CC(CC(=O)NO)(NS(=O)(=O)c2ccc(Cc3cc(C)nc4ccccc34)cc2)C1 | 240 nM | 1900 µM (≈ 917 µg/mL) |  |
| Cc1cc(COc2ccc(S(=O)(=O)NCCC(=O)NO)cc2)c2ccccc2n1 | 2300 nM | 4100 µM (≈ 1700 µg/mL) |  |

Continued, in another order:

| IC50 [1] | solubility at 24 h [2] | SMILES | other results |
| --- | --- | --- | --- |
| 10 nM | 3400 µM (≈ 1880 µg/mL) | Cc1cc(COc2ccc(S(=O)(=O)NC3(CC(=O)NO)CN(CCC(F)(F)F)C3)cc2)c2ccccc2n1 | remaining at 730.5 h, 0.1 mg/ml [3]: 88% |
| 27 nM | 400 µM (≈ 205 µg/mL) | CCc1cc(COc2ccc(S(=O)(=O)NC3(CC(=O)NO)CN(C(C)=O)C3)cc2)c2ccccc2n1 |  |
| 5 nM | 500 µM (≈ 284 µg/mL) | Cc1cc(COc2ccc(S(=O)(=O)NC3(CC(=O)NO)CN(C(=O)N4CCCCC4)C3)cc2)c2ccccc2n1 | solubility at 24 h [6]: 80 µM (≈ 45.4 µg/mL) |
| 6 nM | 900 µM (≈ 487 µg/mL) | Cc1cc(COc2ccc(S(=O)(=O)NC3(CC(=O)NO)CN(C(=O)CC(C)C)C3)cc2)c2ccccc2n1 | hepatocyte CLint at 1 µM [4]: 13 µL/min/1e6 cells |
| 31 nM | 8900 µM (≈ 5080 µg/mL) | COCCN(C1(C(=O)NO)CN(C(=O)C(C)C)C1)S(=O)(=O)c1ccc(OCc2cc(C)nc3ccccc23)cc1 | hepatocyte CLint at 1 µM [4]: 18 µL/min/1e6 cells |
| 4 nM | 3000 µM (≈ 1620 µg/mL) | CC(=O)N1CC2(C1)CC(CC(=O)NO)(NS(=O)(=O)c1ccc(OCc3cc(C)nc4ccccc34)cc1)C2 |  |
| 8 nM | 800 µM (≈ 399 µg/mL) | CC(=O)N1CC(CC(=O)NO)(NS(=O)(=O)c2ccc(OCc3cc(C)nc4ccccc34)cc2)C1 | solubility at 24 h [6]: < 0.5 µM; remaining at 0.1 mg/ml [7]: 98%; hepatocyte CLint at 1 µM [4]: < 5 µL/min/1e6 cells; half-life at 1 µM [8]: > 24 h; selectivity ratio [11]: 1; Activity [9]: Non-Toxic; Activity [10]: Non-Toxic |
| 10 nM | 200 µM (≈ 91.5 µg/mL) | Cc1cc(COc2ccc(S(=O)(=O)NC3(CC(=O)NO)COC3)cc2)c2ccccc2n1 |  |
| 4.6 nM | 11000 µM (≈ 6270 µg/mL) | Cc1cc(COc2ccc(S(=O)(=O)NC3(CC(=O)NO)CN(C(=O)C(C)(C)N(C)C)C3)cc2)c2ccccc2n1 | Stability [12]: Unstable; Activity [9]: Non-Toxic; Activity [10]: Non-Toxic |
| 8 nM |  | Cc1cc(COc2ccc(S(=O)(=O)NC3(CC(=O)NO)CCN(C(=O)CC(C)C)C3)cc2)c2ccccc2n1 (stereo in doubt; 18g) | solubility [2]: 17000 µM (≈ 9430 µg/mL); Activity [9]: Toxic; Activity [10]: Toxic |
| 36 nM | 17000 µM (≈ 8920 µg/mL) | CC(=O)N1CC2(C1)CC(NS(=O)(=O)c1ccc(OCc3cc(C)nc4ccccc34)cc1)(C(=O)NO)C2 | solubility at 24 h [6]: 84 µM (≈ 44.1 µg/mL); remaining at 0.1 mg/ml [7]: 95%; hepatocyte CLint at 1 µM [4]: < 5 µL/min/1e6 cells; half-life at 1 µM [8]: > 24 h; Activity [9]: Toxic; Activity [10]: Toxic |
| 30 nM |  | Cc1cc(COc2ccc(S(=O)(=O)NC3(C(=O)NO)CCC3)cc2)c2ccccc2n1 | Activity [9]: Toxic; Activity [10]: Toxic |
| 6 nM | 1100 µM (≈ 597 µg/mL) | Cc1cc(COc2ccc(S(=O)(=O)NC3(CC(=O)NO)CN(C(=O)OC(C)C)C3)cc2)c2ccccc2n1 | solubility at 24 h [6]: 80 µM (≈ 43.4 µg/mL) |
| 13 nM |  | Cc1cc(COc2ccc(S(=O)(=O)NC3(CC(=O)NO)CCC3)cc2)c2ccccc2n1 |  |
| 33 nM | 5000 µM (≈ 2630 µg/mL) | Cc1cc(COc2ccc(S(=O)(=O)NC3(C(=O)NO)CN(C(=O)CC(C)C)C3)cc2)c2ccccc2n1 | hepatocyte CLint at 1 µM [4]: 6 µL/min/1e6 cells |
| 16 nM | 17000 µM (≈ 8710 µg/mL) | Cc1cc(COc2ccc(S(=O)(=O)NC3(C(=O)NO)CN(C(=O)C(C)C)C3)cc2)c2ccccc2n1 | hepatocyte CLint at 1 µM [4]: < 5 µL/min/1e6 cells; Activity [9]: Non-Toxic; Activity [10]: Non-Toxic |
| 12 nM | 4900 µM (≈ 2510 µg/mL) | CCCCN1CC(CC(=O)NO)(NS(=O)(=O)c2ccc(OCc3cc(C)nc4ccccc34)cc2)C1 | solubility at 24 h [6]: 70 µM (≈ 35.9 µg/mL); remaining at 730.5 h, 0.1 mg/ml [3]: 72% |

Reference: ChEMBL document CHEMBL4184149, “Discovery and process development of a novel TACE inhibitor for the topical treatment of psoriasis” (Bioorg Med Chem, 2018)
